Source: patent US20170340693A1, “DISLODGEMENT AND RELEASE OF HSC USING ALPHA 9 INTEGRIN ANTAGONIST AND CXCR4 ANTAGONIST” (COMMONWEALTH SCIENTIFIC AND INDUSTRIAL RESEARCH ORGANISATION, priority 2014, published 2017)

Test system: progenitors (LSK) and HSC (LSKSLAM) in peripheral blood
Assay: HSC mobilization to peripheral blood in mice
Assay type: in vivo
Details: single agent, single dose
Procedure: For mobilization experiments, all mice received subcutaneous injections at 100 μl/10 gm body weight and PB was harvested by throat bleed using EDTA coated syringes.
(a) R-BC154 (IXb) and BOP. Mice received a single injection of freshly prepared solutions of R-BC154 (IXb) and BOP in saline at the doses indicated before PB was harvested by throat bleed at the times indicated.
(b) G-CSF. Mice received G-CSF at 250 μg/kg twice daily (500 ug/kg/day), 6-8 hours apart for 4 consecutive days. Groups receiving G-CSF and BOP received the standard G-CSF regime as described above followed by a single injection of BOP 1 h prior to harvest. Control mice received an equal volume of saline.
Mice received subcutaneous injections at 100 μl/10 gm body weight of a single injection of BOP (up to 15 mg/kg) for various timeframes, a single BIO5192 injection at 1 mg/kg for 1 hour, a single AMD3100 injection at 3 mg/kg for 1 hour (mice also receiving BOP or BIO15192 were injected with a single dose of BOP or BIO15192 1 hour prior to harvest), or G-CSF at 250 μg/kg twice daily (500 μg/kg/day), 6-8 hours apart for 4 consecutive days (mice also receiving BOP and/or AMD3100 were injected with a single dose of BOP and/or AMD3100 1 h prior to harvest). Control mice received an equivalent volume of saline or 10% HPβCD/saline where appropriate.

CCN(CC)c1ccc2c(-c3ccc(S(=O)(=O)NCc4cn(C5C[C@@H](C(=O)N[C@@H](Cc6ccc(OC(=O)N7CCCC7)cc6)C(=O)O)N(S(=O)(=O)c6ccccc6)C5)nn4)cc3S(=O)(=O)[O-])c3ccc(=[N+](CC)CC)cc-3oc2c1 (stereo partly shown) [R-BC154 (IXb)]
increase in PB progenitors (LSK) and HSC (LSKSLAM): moderate increases
